Patent publication US9968582B2, “Use of a benzoate containing composition in urea cycle disorders and neurodegenerative disorders” (Rush University Medical Center, priority 2014, dated 2018)

Columns and labels:
[1] = tested on: spinal cord of EAE mice; assay: H&E histology, infiltration of inflammatory cells and cuffed vessels in spinal cord of EAE mice; type: in vivo; settings: GTB from 8 dpt, sacrificed 16 dpt
Source text: On 14 dpi (first chronic phase), five mice from each of the following groups (control, EAE, EAE+GTB, and EAE+vehicle) were anesthetized. After perfusion with phosphate buffered saline (PBS) (pH 7.4) and then with 4% (w/v) paraformaldehyde solution in PBS, cerebellum and whole spinal cord was dissected out from each mouse. The tissues were further fixed and then divided into halves: one-half was used for histological staining whereas the other half was used for myelin staining. For histological analysis, routine histology was performed to obtain perivascular cuffing and morphological details of CNS tissues of EAE mice. Paraformaldehyde-fixed tissues were embedded in paraffin, and serial sections (4 μm) were cut. Sections were stained with conventional H&E staining method. Digital images were collected under bright-field setting using an ×40 objective. Slides were assessed in a blinded fashion by three examiners for inflammation in different anatomical compartments (meninges and parenchyma). Inflammation was scored using the following scale as described: for meninges and parenchyma: 0, no infiltrating cells; 1, few infiltrating cells; 2, numerous infiltrating cells; and 3, widespread infiltration. For vessels: 0, no cuffed vessel; 1, one or two cuffed vessels per section; 2, three to five cuffed vessels per section and 3, more than five cuffed vessels per section. At least six serial sections of each spinal cord from each of five mice per group were scored and statistically analyzed by ANOVA.
Infiltration of autoreactive T cells and associated mononuclear cells is a hallmark of EAE as well as MS. The inventor examined whether GTB treatment attenuated infiltration and inflammation in adoptively-transferred EAE mice. Mice receiving GTB from 8 dpt (onset of the acute phase) were sacrificed on 16 dpt. […] In contrast, vehicle was unable to inhibit the infiltration of inflammatory cells (FIG. 4A).

[2] = tested on: iNOS; assay: Expression of iNOS in spinal cord of EAE mice (RT-PCR); type: in vivo; settings: FIG. 4D-F
Description: Total RNA was isolated from splenic T cells and spinal cord by using the RNeasy mini kit (Qiagen, Valencia, Calif.) and from spleen and cerebellum by using the Ultraspec-II RNA reagent (Biotecx laboratories, Inc, Houston, Tex.) following manufacturer's protocol. To remove any contaminating genomic DNA, total RNA was digested with DNase. Semi-quantitative RT-PCR was carried out using a RT-PCR kit from Clonetech (Mountain View, Calif.). Briefly, 1 μg of total RNA was reverse transcribed using oligo(dT)12-18 as primer and MMLV reverse transcriptase (Clontech) in a 20 μL reaction mixture. The resulting cDNA was appropriately-diluted, and diluted cDNA was amplified using Titanium Taq DNA polymerase and following primers. Amplified products were electrophoresed on a 1.8% agarose gels and visualized by ethidium bromide staining.
The relative expression of each gene with respect to GAPDH was measured after scanning the bands with a Fluor Chem 8800 Imaging System (Alpha Innotech, San Leandro, Calif.).
Real-time PCR analysis was performed using the ABI-Prism7700 sequence detection system (Applied Biosystems, Foster City, Calif.). […] Data were processed by the ABI Sequence Detection System 1.6 software and analyzed by ANOVA. […]

[3] = tested on: DJ-1; assay: MPTP mouse model of PD, Western blot of DJ-1 in the nigra; type: in vivo, mice; settings: oral GTB in MPTP-intoxicated mice, dose-dependent; FIG. 9A-B
Description: (§1) Six- to eight-week old C57BL/6 mice were purchased from Harlan (Indianapolis, Ind.). For acute MPTP intoxication, mice received four intraperitoneal (i.p.) injections of MPTP-HCl (18 mg/kg of free base; Sigma Chemical Co., St. Louis, Mo.) in saline at 2-h intervals. Control animals received only saline.
(§2) GTB was mixed in 0.5% methylcellulose (MC) and from 3 h after the last injection of MPTP, mice were gavaged 100 μL GTB-mixed MC once daily using gavage needle. Therefore, control MPTP mice received only MC as vehicle.
(§3) Immunoblot analysis for DJ-1 and TH was carried out. Briefly, cell homogenates were electrophoresed, proteins were transferred onto a nitrocellulose membrane, and bands were visualized with an Odyssey infrared scanner after immunolabeling with respective primary antibodies followed by infra-red fluorophore-tagged secondary antibody (Invitrogen).
Upregulation and/or maintenance of PD-related beneficial protein such as DJ-1 in the nigra during neurodegenerative insults may have therapeutic efficacy in PD.

[4] = tested on: Tyrosine hydroxylase (TH); assay: MPTP mouse model of PD, Western blot of nigral TH; type: in vivo, mice; settings: FIG. 9A-B
Description: as §1, §2, §3
Tyrosine hydroxylase (TH), the key enzyme responsible for the production of dopamine, is present in dopaminergic neurons. MPTP-intoxication led to approximately 60% loss of nigral TH (FIG. 9A-B) compared with saline-injected controls.

O=C(OCC(COC(=O)c1ccccc1)OC(=O)c1ccccc1)c1ccccc1 [GTB, glyceryl tribenzoate] was tested, and the “infiltration of inflammatory cells into the spinal cord (H&E)” value ([1]; FIG. 4A) was “markedly inhibited the infiltration of inflammatory cells”, the quantitation of infiltration ([1]; FIG. 4B) was “dramatically reduced infiltration” and the “appearance of cuffed vessels” value ([1]; FIG. 4C) was “dramatically reduced”. For the same compound, the “expression of iNOS in the spinal cord” value [2] was “dramatically reduced the expression”, the “level of DJ-1 in the nigra” value [3] was “protected DJ-1 in the nigra” and the “nigral TH” value ([4]; GTB 25 mg/kg body wt/d) was “protection was evident”. For the same compound, the “nigral TH” value ([4]; oral GTB in MPTP-intoxicated mice) was “protected nigral TH in a dose-dependent manner”.
